# Biological target: T1, Xyl-L-CshA (LfXyl43 β-xylosidase with C-terminal CshA anchor) (Limosilactobacillus fermentum, UniProt Z9FCD9CVP2)
# T1 construct: LfXyl43 fused through (GGGGS)3 linker to C-terminal surface anchor CshA of Lactiplantibacillus plantarum SK156; 6xHis tag; pET21b(+), E. coli BL21(DE3)
# T1 sequence (Z9FCD9CVP2 1-551): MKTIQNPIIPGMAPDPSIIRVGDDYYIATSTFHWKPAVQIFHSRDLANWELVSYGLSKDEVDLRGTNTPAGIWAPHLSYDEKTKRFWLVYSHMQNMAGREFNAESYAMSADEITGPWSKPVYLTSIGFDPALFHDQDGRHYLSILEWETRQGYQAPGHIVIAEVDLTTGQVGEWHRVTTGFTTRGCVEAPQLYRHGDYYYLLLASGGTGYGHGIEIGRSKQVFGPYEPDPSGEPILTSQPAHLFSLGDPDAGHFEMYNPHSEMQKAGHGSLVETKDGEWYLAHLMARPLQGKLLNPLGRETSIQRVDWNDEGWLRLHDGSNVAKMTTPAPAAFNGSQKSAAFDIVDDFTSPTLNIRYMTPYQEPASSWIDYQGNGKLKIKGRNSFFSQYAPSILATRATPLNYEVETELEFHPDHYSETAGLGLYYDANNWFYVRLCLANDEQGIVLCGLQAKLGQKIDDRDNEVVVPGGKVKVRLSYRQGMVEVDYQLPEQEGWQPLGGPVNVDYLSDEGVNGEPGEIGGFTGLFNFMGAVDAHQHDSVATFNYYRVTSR
# Experiment: reducing sugar release (DNSA, […] nm); TLC
# Format: biochemical
# Conditions: purified fusion protein immobilised on bacteria-like particles; 2 mM substrate; 50 mM sodium phosphate pH 7.0; 35 °C; 5 min
smiles,measurement,value
OC1OC[C@@H](O[C@@H]2OC[C@@H](O)[C@H](O)[C@H]2O)[C@H](O)[C@H]1O (stereo partly shown) [xylobiose],"reducing sugar release (DNSA, 540 nm); TLC","CshA-L-Xyl and Xyl-L-CshA (i.e., with linker peptide) had higher catalytic activity towards all XOS substrates"

# From paper PMC12179037, “Degradation of beechwood xylan using food-grade bacteria-like particles displaying β-xylosidase from Limosilactobacillus fermentum” (Bioresources and Bioprocessing, 2025)
